Source: patent publication US20060099712A1, “Correlation of anti-cancer activity of dyes with redox potentials” (Eastman Kodak Company, priority 2004, published 2006)
≈ marks a conversion by molar mass, not a printed value. Read-outs that look alike come from different tables or passages of the source.

Experiments:
[1] = system: CX-1 Human Colon Carcinoma; assay: Clonogenic dye screening assay, CX-1 cells (IC50); assay type: cell-based; conditions: for IC50: Homo sapiens; for Selectivity: Table 1, cell line not given, values equal CV/CX of Table II; for CV/CX (selectivity, kill ratio): ratio of IC50 in normal CV-1 line to IC50 in carcinoma CX-1 line
In short: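 Cells seeded 16-30 h ahead (2000 CX-1 or 1000 CV-1 per well), exposed to serially diluted dyes for 3 h at 37 °C, rinsed three times, then grown into colonies. Eight-point curves spanned 0.32-0.0015 μg/mL (CX-1) and 3.2-0.025 μg/mL (CV-1). IC50 is the concentration killing 50% of cells.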

[2] = Electrochemical reduction potential (Er) measurement, SHACV / fast scan CV; assay type: physicochemical
Source text: In the practice of this invention the reduction potential of a given dye may be determined in various ways. If available, the published reduction potential may be employed. Reduction potentials for numerous cyanine and merocyanine dyes are available in the literature. (See J. Lenhard, Journal of Imaging Science, vol. 30 pp. 27-35 (1986).) A large amount of data has been generated on the reduction and oxidation potentials of these dyes from their use in photography and related arts where they are employed, inter alia, as spectral sensitizers.
If a published reduction potential is not available, suitable techniques for measuring reduction potential are available. Accurate electrochemical oxidation and reduction potentials for these organic dyes can be measured by the techniques of fast scan cyclic voltommetry (CV) or second harmonic ac voltommetry (SHACV). SHACV measurements are made as described by Lenhard in the Journal of Imaging Science volume 30, 1986 pp 27-35 using a commercially available (Princeton Applied Research Corp.) potentiostat in conjunction with voltage programmer, a conventional lock-in amplifier, and a low-distortion oscillator. The SHACV method utilizes an ac voltage waveform (of a frequency greater than or equal to 400 hz) that is superimposed on a DC potential ramp. On the other hand, the measurement of the oxidation or reduction potential by the CV method utilizes a (high frequency) triangular voltage waveform. The general procedures for measuring potentials by this method have been described by Wightman in Analytical Chemistry, 1984, vol. 56, pp524 and Journal of Physical Chemistry, 1984, vol. 88, pp3915. The specific application of this technique to the measurement of cyanine dye potentials has been reported by Nomura and Okazaki, Chemistry Letters, 1990, pp2231-2234. Commercial instrumentation especially designed for fast scan (i.e., high frequency) CV is available. It is noteworthy that because of the complicated nature of many of the cyanine dyes, electrochemical reactions, conventional slow scan cyclic voltommetry or polarography methods (as described by R. Large in Photographic Sensitivity, R. Cox, ed., Academic Press, New York, 1973, pp 241-263) provide only approximate values for oxidation and reduction potentials. Errors as large as 0.4 V from the true potential can be obtained by using slow scan CV or electrochemical methods.
The procedure for measuring the oxidation or reduction potential by the SHACV or fast scan CV method utilizes solutions of acetonitrile (or similar nonaqueous solvent) with added tetrabutylammonium tetrafluoroborate TBABF4 at a concentration of 0.1 M and ca. 5×10^−4 M of the cyanine, oxonol, or merocyanine dye. For measurement of the reduction potential the solution must be deaerated with argon prior to examination. The preferred working electrode is a Pt disk (ca. 0.02 cm^2) that is polished with 1 μm diamond paste, rinsed with water, and dried before each experiment. The reference electrode is a NaCl saturated calomel electrode. The cell and reference electrodes are maintained at 22 C. A value of 40 mV is added to the measured potentials to convert the number to that corresponding to an Ag/AgCl reference electrode. If a solvent other than acetonitrile is used then the measured potential must be referenced to a standard organic redox system such as ferrocene and corrected accordingly.
SHACV (Second Harmonic Alternating Current Voltametry) measurements are made as described by Lenhard in the Journal of Imaging Science volume 30, 1986 pp 27-35 using a commercially available (Princeton Applied Research Corp.) potentiostat in conjunction with voltage programmer, a conventional lock-in amplifier, and a low-distortion oscillator. The SHACV method utilizes an ac voltage waveform (of a frequency greater than or equal to 400 hz) that is superimposed on a DC potential ramp. […]

[3] = system: CV-1 Normal Monkey Kidney Epithelial; assay: Clonogenic dye screening assay, CV-1 cells (IC50); assay type: cell-based, African green monkey; conditions: Primates
Source text: CX-1 is a cancerous human colon adenocarcinoma cell line. CV-1 is a non-cancerous control, which is a kidney epithelial cell line from an African green monkey. IC50 is the dye concentration at which 50% of the cells are killed. Selectivity or kill ratio is defined as the ratio of […] at IC50 for both CX-1 and CV-1. A ratio with a high number indicates a high selectivity.
The dyes were screened in two cell lines. CX-1 is a human colon adenocarcinoma cell line. CV-1 is a kidney epithelial cell line from an African green monkey. CV-1 was used as a reference because no normal human epithelial cell line is available for clonogenic assay.
In the initial screen, dyes were examined at six different concentrations to generate a dose response curve. An IC50 value, the concentration at which 50% of the cells are killed, was then calculated. Initially, a dye concentration of 1.0 μg/mL was the highest examined for the CX-1 cell line and 0.005 μg/mL was the lower limit. The corresponding limits on the CV-1 cell line were […].
The screening procedure used a response curve that was determined from eight dye concentrations. The upper and lower limits of CX-1 were 0.32 and 0.0015 μg/mL, respectively, and the corresponding revised limits on CV-1 were 3.2 and 0.025 μg/mL. The screening results were reported by assigning an IC50 value to each dye for the CV-1 and CX-1 cell lines. These values will be referred to herein simply as CV and CX. The most desirable result would be to have a dye that was highly toxic to carcinoma cells but nontoxic to ‘normal’ cells. One measure of this type of selectivity is the ratio of the IC50's in the normal cell line to that in the carcinoma line, CV/CX.
Compounds are screened via an in vitro assay. CV-1 and CX-1 cells are seeded into separate assay plates. The plates are treated with varying concentrations of test compounds, rinsed, and colonies allowed to grow. IC50's are determined and drugs evaluated based on their selectivity and toxicity. Assay Steps: • I. Seeding Cells • II. Weighing • III. Preparation of Solution • IV. Treatment • V. Rinsing and Feeding • VI. Fixing • VII. IC50 Determination I. Seeding Cells
The cells should be seeded 16-30 hours before treatment. The media for CV-1 cells is DME+5% calf serum +5% Nuserum. The media for CX-1 cells is RPMI/DME (50/50)+5% calf serum +5% Nuserum.
(c) number of cells based on 2000 CX-1 cells/well and 1000 CV-1 cells/well. NOTE: Always make enough cell suspension for 1 extra plate to allow for volume loss during transfers.
• (a) For CV-1: 256 ug/ml-256 ul of 1 mg/ml stock +744 ul DMSO • (b) For CX-1: 25.6 ug/ml-100 ul of 256 ug/ml+900 ul DMSO IV. Treatment • 1. Each plate is treated with 4 test compounds, one positive control and one negative control. • 2. Serial dilutions of the compounds are made in the following way:
2 multi-well pipetters are used. One is set for 10 ul and one for 200 ul. Each is equipped with 6 tips spaced such that they fit into the 6 rows of a plate. 390 ul of media is added to the first column of each plate. 10 ul each of 4 compound solutions, a positive and a negative control are taken up and put into the first column of wells. The 200 ul pipetter is then placed in the same wells, pipetted up and down 3 times and two 200 ul aliquots are moved to the next column of wells. This column is pipetted up and down 3 times and 400 ul moved to column 3, etc. The final 400 ul excess from column 8 is discarded.
• 3. Label the plates along the front, each row −1 compound. • 4. Incubate the plates at 37° C. for 3 hrs. V. Rinsing • 1. Prepare several bottles of CX-1 and CV-1 media. • 2. Check for precipitate in first column of each plate and note. • 3. Starting with the plates treated first, rinse several plates at a time by aspirating the treatments and refilling each well with 0.5-1.0 ml of the rinse media. Aspirate and refill 2 more times for a total of 3 rinses. • 4.

[4] = CX-1, 3 hrs treatment, colonies after 7-10 days, unit from method, read-out: CX (IC50 in the CX-1 cell line)
[5] = Table XVI, selectivity ratio of IC50 values
[6] = CV-1, 3 hrs treatment, colonies after 7-10 days, unit from method, read-out: CV (IC50 in the CV-1 cell line)

Compound | IC50 [1, 4] [µg/mL] | Selectivity [1] | CV/CX (selectivity, kill ratio) [1] | ER(v), electrochemical reduction potential [2] [V] | IC50 [3, 6] [µg/mL] | further results
Clc1ccc2c(c1)N1CCC(/C=C3\CC[n+]4c3sc3ccc(Cl)cc34)=C1S2 [Dye D-168] | 3 | 100.0 | 100.0 | −0.9 |  | 
CCN1C=C(c2ccccc2)O/C1=C\C=C\c1sc2ccccc2[n+]1CC [Dye D-123] | 0.005 |  | 80 |  | 0.4 | IC50 ([1]; CX-1, Table XVI, unsymmetrical dyes, CX-1 cells, read-out: CX): 0.005 µg/mL; CV/CX [1, 5]: 80.0; IC50 ([3]; CV-1, Table XVI, unsymmetrical dyes, CV-1 cells, read-out: CV): 0.4 µg/mL
CCN1/C(=C/C=C/c2sc3ccccc3[n+]2CCO)Sc2ccccc21 [Dye D-125] | 0.035 |  | >91.4 |  | > 3.2 | IC50 ([1]; CX-1, Table XX, thiacarbocyanine nitrogen substituents, CX-1 cells, read-out: CX): 0.035 µg/mL; CV/CX ([1]; Table XX, ratio given a value of 1 where dye inactive): 91.4; IC50 ([3]; CV-1, Table XX, thiacarbocyanine nitrogen substituents, CV-1 cells, read-out: CV): > 3.2 µg/mL
CC[n+]1c(/C=C/C=C2\OC=C(c3ccccc3)N2C)sc2ccccc21 [Dye D-145] | < 0.005 |  | 60 |  | 0.3 | 
CC[n+]1c(/C=C/C=C2\[Te]c3ccccc3N2C)sc2ccccc21 [Dye D-152] |  |  | 60 |  |  | IC50 ([1]; CX-1, read-out: CX): < 0.005 µg/mL; IC50 ([1]; CX-1, read-out: CX (IC50 in the CX-1 cell line)): < 0.005 µg/mL; CV/CX [1, 5]: >60.0; CX ([1]; Table XVII, benzotellurazole derivatives, CX-1 cells): <0.005; CV/CX ([1]; Table XVII, selectivity ratio of IC50 values): >60.0; IC50 ([3]; CV-1, read-out: CV): 0.3 µg/mL; IC50 ([3]; CV-1, read-out: CV (IC50 in the CV-1 cell line)): 0.3 µg/mL
CCN1/C(=C/C=C/c2cc3scc([S-])[n+]3c3ccccc23)Oc2ccccc21 [Dye D-141] | < 0.005 |  | 100 |  | 0.5 (≈ 1.24 µM) | 
CCN1/C(=c2\s/c(=c3\s/c(=C/c4sc5ccccc5[n+]4CC)n(CC)c3=O)n(CC)c2=O)Sc2ccccc21 [Dye D-112] | 0.01 | 900 | 900 | −1.1 | 9 | 
CCN1/C(=c2/s/c(=c3\s/c(=C\c4ccc5ccccc5[n+]4CC)n(CC)c3=O)n(CC)c2=O)Sc2ccccc21 [Dye D-108] | 0.045 |  | 71.15 |  | 3.2 | 
CC[n+]1c(/C=C/C(C(=O)c2ccccc2)=P(c2ccccc2)(c2ccccc2)c2ccccc2)sc2ccccc21 [Dye D-148] | 0.04 | 250 | 250 | −1.15 | > 10 | 
